# According to ChEMBL document CHEMBL1201862, “PubChem BioAssay data set” (2004):
#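 Growth conditions: 96-well plates. Treatment: test compound, 48 hours, 5 concentrations. Analysis: linear interpolation between bracketing concentrations; unreached endpoints set to highest concentration. At the GI50, growth is halved.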 Activity calls are given as the source filed them. Cut-off read from the data, not from the text of the source: active = GI50 up to about 1.1 µM and inactive = higher.
# Tests used:
# Test in all cases: inhibition of tumour cell growth, NCI panel, 48 h
# UACC-257 = tested on: UACC-257
# CAKI-1 = tested on: CAKI-1
# SK-MEL-5 = tested on: SK-MEL-5
# OVCAR-4 = tested on: OVCAR-4
# MDA-MB-231 = tested on: MDA-MB-231
# U-251 = tested on: U-251
# HCT-116 = tested on: HCT-116
# SK-OV-3 = tested on: SK-OV-3
# 786-0 = tested on: 786-0
# HCC 2998 = tested on: HCC 2998
# CCRF-CEM = tested on: CCRF-CEM
# SF-268 = tested on: SF-268
# T47D = tested on: T47D
# RXF 393 = tested on: RXF 393
# NCI-H23 = tested on: NCI-H23
# KM12 = tested on: KM12
# A549 = tested on: A549
# NCI-H522 = tested on: NCI-H522
# HL-60 = tested on: HL-60
# UACC-62 = tested on: UACC-62
SMILES,GI50 (UACC-257),GI50 (CAKI-1),GI50 (SK-MEL-5),GI50 (OVCAR-4),GI50 (MDA-MB-231),GI50 (U-251),GI50 (HCT-116),GI50 (SK-OV-3),GI50 (786-0),GI50 (HCC 2998),GI50 (CCRF-CEM),GI50 (SF-268),GI50 (T47D),GI50 (RXF 393),GI50 (NCI-H23),GI50 (KM12),GI50 (A549),GI50 (NCI-H522),GI50 (HL-60),GI50 (UACC-62)
NP(=O)(OCC1=CC(=O)c2ccccc2C1=O)N(CCBr)CCBr (stereo not given),1.87 µM (inactive),0.843 µM (active),1.31 µM (inactive),16.4 µM (inactive),11.4 µM (inactive),11.5 µM (inactive),9.55 µM (inactive),14.3 µM (inactive),5.82 µM (inactive),16 µM (inactive),1.2 µM (inactive),11.2 µM (inactive),3.48 µM (inactive),7.4 µM (inactive),3.03 µM (inactive),8.65 µM (inactive),4.17 µM (inactive),2.31 µM (inactive),0.863 µM (active),2.24 µM (inactive)
O=C1c2ccccc2-c2c1c1ccccc1c(=O)n2CCO,> 79.6 µM (inactive),3.53 µM (inactive),8.81 µM (inactive),33.2 µM (inactive),46 µM (inactive),8.61 µM (inactive),4.83 µM (inactive),30.8 µM (inactive),6.03 µM (inactive),24.8 µM (inactive),3.49 µM (inactive),19.1 µM (inactive),23.6 µM (inactive),32.1 µM (inactive),14.1 µM (inactive),6.38 µM (inactive),5.27 µM (inactive),24 µM (inactive),2.4 µM (inactive),11.5 µM (inactive)
CN(C)CCC(C(=O)C(C)(C)C)c1ccccn1 (stereo not given),> 100 µM (inactive),> 100 µM (inactive),> 100 µM (inactive),> 100 µM (inactive),> 100 µM (inactive),> 100 µM (inactive),> 100 µM (inactive),> 100 µM (inactive),> 100 µM (inactive),> 100 µM (inactive),> 100 µM (inactive),> 100 µM (inactive),> 100 µM (inactive),> 100 µM (inactive),> 100 µM (inactive),> 100 µM (inactive),> 100 µM (inactive),> 100 µM (inactive),> 100 µM (inactive),> 100 µM (inactive)
O=C(Nc1ccccc1)c1cc(S(=O)(=O)Nc2nc3cccnc3[nH]2)c(SSc2cc(Cl)c(C(=O)Nc3ccccc3)cc2S(=O)(=O)Nc2nc3cccnc3[nH]2)cc1Cl,> 100 µM (inactive),> 100 µM (inactive),> 100 µM (inactive),> 100 µM (inactive),> 100 µM (inactive),> 100 µM (inactive),> 100 µM (inactive),> 100 µM (inactive),> 100 µM (inactive),> 100 µM (inactive),> 100 µM (inactive),> 100 µM (inactive),> 100 µM (inactive),> 100 µM (inactive),> 100 µM (inactive),> 100 µM (inactive),> 100 µM (inactive),> 100 µM (inactive),> 100 µM (inactive),> 100 µM (inactive)
CN(C)C(=O)c1nnsc1NN=O,> 100 µM (inactive),> 100 µM (inactive),> 100 µM (inactive),> 100 µM (inactive),> 100 µM (inactive),> 100 µM (inactive),> 100 µM (inactive),> 100 µM (inactive),> 100 µM (inactive),> 100 µM (inactive),> 100 µM (inactive),> 100 µM (inactive),> 100 µM (inactive),> 100 µM (inactive),> 100 µM (inactive),> 100 µM (inactive),> 100 µM (inactive),> 100 µM (inactive),> 100 µM (inactive),> 100 µM (inactive)
CN(C)CCN(c1ccccn1)c1ccccn1,> 100 µM (inactive),> 100 µM (inactive),> 100 µM (inactive),> 100 µM (inactive),> 100 µM (inactive),> 100 µM (inactive),> 100 µM (inactive),> 100 µM (inactive),> 100 µM (inactive),> 100 µM (inactive),> 100 µM (inactive),> 100 µM (inactive),> 100 µM (inactive),> 100 µM (inactive),> 100 µM (inactive),> 100 µM (inactive),> 100 µM (inactive),> 100 µM (inactive),> 100 µM (inactive),> 100 µM (inactive)
Cc1cc(=O)oc2c(C3=NN(C=O)C(c4ccccc4)C3)c(O)ccc12 (stereo not given),83.4 µM (inactive),> 72.1 µM (inactive),56.2 µM (inactive),> 64.1 µM (inactive),59.6 µM (inactive),32.7 µM (inactive),81.1 µM (inactive),20.2 µM (inactive),26.1 µM (inactive),> 87.7 µM (inactive),60.5 µM (inactive),31.6 µM (inactive),> 100 µM (inactive),38.2 µM (inactive),85.9 µM (inactive),> 100 µM (inactive),20.8 µM (inactive),54 µM (inactive),> 100 µM (inactive),82.2 µM (inactive)
CCN(CCO)CCNc1ccc(C)c2sc3ccccc3c(=O)c12,2.75 µM (inactive),4.73 µM (inactive),2.59 µM (inactive),7.8 µM (inactive),1.88 µM (inactive),3.69 µM (inactive),2.88 µM (inactive),5.66 µM (inactive),2.96 µM (inactive),2.28 µM (inactive),6.04 µM (inactive),6.85 µM (inactive),3.01 µM (inactive),1.25 µM (inactive),8.05 µM (inactive),3.68 µM (inactive),4.3 µM (inactive),4.89 µM (inactive),3.37 µM (inactive),1.76 µM (inactive)
O=C(O)CCCc1ccc2c(c1)C(C(=O)O)CC2 (stereo not given),> 100 µM (inactive),> 100 µM (inactive),> 100 µM (inactive),> 100 µM (inactive),> 100 µM (inactive),> 100 µM (inactive),> 100 µM (inactive),> 100 µM (inactive),> 100 µM (inactive),> 100 µM (inactive),> 100 µM (inactive),> 100 µM (inactive),> 100 µM (inactive),> 100 µM (inactive),> 100 µM (inactive),> 100 µM (inactive),> 100 µM (inactive),> 100 µM (inactive),> 100 µM (inactive),> 100 µM (inactive)
[N-]=[N+]=Nc1ccc(CNc2cc(=O)[nH]c(=O)[nH]2)cc1,> 100 µM (inactive),> 100 µM (inactive),> 100 µM (inactive),> 100 µM (inactive),> 100 µM (inactive),> 100 µM (inactive),> 100 µM (inactive),> 100 µM (inactive),> 100 µM (inactive),> 100 µM (inactive),> 100 µM (inactive),> 100 µM (inactive),> 100 µM (inactive),> 100 µM (inactive),> 100 µM (inactive),> 100 µM (inactive),> 100 µM (inactive),> 100 µM (inactive),> 100 µM (inactive),> 100 µM (inactive)
